In ChEMBL document CHEMBL1132731, “Synthesis and antibacterial activities of novel C(3)-aminopyrimidinyl substituted cephalosporins including against respiratory tract pathogens” (2000):
Values after ≈ are worked out from the molar mass of the structure shown.

Columns and labels:
Assay type in all cases: functional
[1] = Minimal inhibitory concentration against Enterococcus faecalis 29212
Escherichia coli = test: Minimal inhibitory concentration against Escherichia coli 3190Y
[2] = Minimal inhibitory concentration against Haemophilus influenza HIN003, beta lactamase producing resistant strain; settings: Haemophilus influenzae
Klebsiella pneumoniae = test: Minimal inhibitory concentration against Klebsiella pneumonia 2011E
[3] = Minimal inhibitory concentration against Proteus vulgaris 6059
Staphylococcus aureus [4] = test: Minimal inhibitory concentration against methicillin resistant Staphylococcus aureus 77
Streptococcus pneumoniae = test: Minimal inhibitory concentration against Streptococcus pneumonia PN010, penicillin resistant
Staphylococcus aureus [5] = test: Minimal inhibitory concentration against methicillin susceptible Staphylococcus aureus giorgio
[6] = Minimal inhibitory concentration against Moraxella catarrhalis 25240

Compound	MIC [1] [µg/mL]	MIC (Escherichia coli) [µg/mL]	MIC [2] [µg/mL]	MIC (Klebsiella pneumoniae) [µg/mL]	MIC [3] [µg/mL]	MIC (Staphylococcus aureus [4]) [µg/mL]	MIC (Streptococcus pneumoniae) [µg/mL]	MIC (Staphylococcus aureus [5]) [µg/mL]	MIC [6] [µg/mL]
Nc1cc(SC2=C(C(=O)O)N3C(=O)C(NC(=O)/C(=N\O)c4nc(N)sc4Cl)C3SC2)nc(N)n1 (configuration not stated)	2 (≈ 3.68 µM)	0.25 (≈ 0.46 µM)	0.5 (≈ 0.919 µM)	2 (≈ 3.68 µM)	0.5 (≈ 0.919 µM)	2 (≈ 3.68 µM)	1 (≈ 1.84 µM)	0.25 (≈ 0.46 µM)	< 0.008
CCO/N=C(\C(=O)NC1C(=O)N2C(C(=O)O)=C(Sc3cc(N)nc(N)n3)CSC12)c1csc(N)n1 (configuration not stated)	64 (≈ 119 µM)	0.13 (≈ 0.242 µM)	0.063 (≈ 0.117 µM)	2 (≈ 3.72 µM)	0.063 (≈ 0.117 µM)	4 (≈ 7.44 µM)	0.5 (≈ 0.93 µM)	0.5 (≈ 0.93 µM)	< 0.008
CO/N=C(\C(=O)NC1C(=O)N2C(C(=O)O)=C(SCSc3cc(N)nc(N)n3)CSC12)c1csc(N)n1 (configuration not stated)	64 (≈ 112 µM)	0.063 (≈ 0.111 µM)	1 (≈ 1.76 µM)	0.5 (≈ 0.878 µM)	0.016 (≈ 0.0281 µM)	4 (≈ 7.02 µM)	0.13 (≈ 0.228 µM)	0.25 (≈ 0.439 µM)	0.5 (≈ 0.878 µM)
CO/N=C(\C(=O)NC1C(=O)N2C(C(=O)O)=C(Sc3cc(N)nc(N)n3)CSC12)c1csc(N)n1 (configuration not stated)	> 64	0.031 (≈ 0.0592 µM)	0.016 (≈ 0.0306 µM)	0.5 (≈ 0.955 µM)	0.016 (≈ 0.0306 µM)	4 (≈ 7.64 µM)	0.5 (≈ 0.955 µM)	0.5 (≈ 0.955 µM)	< 0.008
Nc1cc(N)nc(SCSC2=C(C(=O)O)N3C(=O)C(NC(=O)/C(=N\O)c4nc(N)sc4Cl)C3SC2)n1 (configuration not stated)	4 (≈ 6.78 µM)	1 (≈ 1.69 µM)	0.016 (≈ 0.0271 µM)	8 (≈ 13.6 µM)	1 (≈ 1.69 µM)	4 (≈ 6.78 µM)	1 (≈ 1.69 µM)	0.5 (≈ 0.847 µM)	0.13 (≈ 0.22 µM)
Nc1ccnc(SCSC2=C(C(=O)O)N3C(=O)C(NC(=O)/C(=N\O)c4nc(N)sc4Cl)C3SC2)n1 (configuration not stated)	2 (≈ 3.48 µM)	1 (≈ 1.74 µM)	0.25 (≈ 0.435 µM)	8 (≈ 13.9 µM)	0.5 (≈ 0.869 µM)	2 (≈ 3.48 µM)	1 (≈ 1.74 µM)	0.25 (≈ 0.435 µM)	0.5 (≈ 0.869 µM)
C#CCO/N=C(\C(=O)NC1C(=O)N2C(C(=O)O)=C(Sc3cc(N)nc(N)n3)CSC12)c1csc(N)n1 (configuration not stated)	32 (≈ 58.4 µM)	0.13 (≈ 0.237 µM)	0.031 (≈ 0.0566 µM)	2 (≈ 3.65 µM)	0.031 (≈ 0.0566 µM)	4 (≈ 7.3 µM)	0.25 (≈ 0.457 µM)	0.5 (≈ 0.913 µM)	0.016 (≈ 0.0292 µM)
Nc1nc(O)cc(SC2=C(C(=O)O)N3C(=O)C(NC(=O)/C(=N\O)c4csc(N)n4)C3SC2)n1 (configuration not stated)	4 (≈ 7.83 µM)	0.5 (≈ 0.979 µM)	1 (≈ 1.96 µM)	8 (≈ 15.7 µM)	0.5 (≈ 0.979 µM)	4 (≈ 7.83 µM)	1 (≈ 1.96 µM)	0.5 (≈ 0.979 µM)	< 0.008
Nc1nc(/C(=N/O)C(=O)NC2C(=O)N3C(C(=O)O)=C(SCSc4nc(O)nc(N)c4N)CSC23)c(Cl)s1 (configuration not stated)	4 (≈ 6.6 µM)	0.25 (≈ 0.412 µM)	0.016 (≈ 0.0264 µM)	1 (≈ 1.65 µM)	0.25 (≈ 0.412 µM)	4 (≈ 6.6 µM)	2 (≈ 3.3 µM)	0.5 (≈ 0.825 µM)	0.13 (≈ 0.214 µM)
Nc1cc(SCSC2=C(C(=O)O)N3C(=O)C(NC(=O)/C(=N\O)c4nc(N)sc4Cl)C3SC2)nc(N)n1 (configuration not stated)	1 (≈ 1.69 µM)	0.25 (≈ 0.424 µM)	0.5 (≈ 0.847 µM)	1 (≈ 1.69 µM)	0.25 (≈ 0.424 µM)	1 (≈ 1.69 µM)	0.25 (≈ 0.424 µM)	0.13 (≈ 0.22 µM)	0.13 (≈ 0.22 µM)
Nc1cc(SCSC2=C(C(=O)O)N3C(=O)C(NC(=O)/C(=N\O)c4csc(N)n4)C3SC2)nc(N)n1 (configuration not stated)	1 (≈ 1.8 µM)	0.031 (≈ 0.0558 µM)	0.5 (≈ 0.9 µM)	0.5 (≈ 0.9 µM)	0.031 (≈ 0.0558 µM)	1 (≈ 1.8 µM)	0.5 (≈ 0.9 µM)	0.13 (≈ 0.234 µM)	2 (≈ 3.6 µM)
Nc1nc(O)cc(SCSC2=C(C(=O)O)N3C(=O)C(NC(=O)/C(=N\O)c4nc(N)sc4Cl)C3SC2)n1 (configuration not stated)	1 (≈ 1.69 µM)	0.25 (≈ 0.423 µM)	0.031 (≈ 0.0524 µM)	2 (≈ 3.38 µM)	0.13 (≈ 0.22 µM)	1 (≈ 1.69 µM)	0.5 (≈ 0.846 µM)	0.13 (≈ 0.22 µM)	0.063 (≈ 0.107 µM)
CCO/N=C(\C(=O)NC1C(=O)N2C(C(=O)O)=C(Sc3cc(N)nc(N)n3)CSC12)c1nsc(N)n1 (configuration not stated)	64 (≈ 119 µM)	0.063 (≈ 0.117 µM)	0.13 (≈ 0.241 µM)	2 (≈ 3.71 µM)	0.063 (≈ 0.117 µM)	4 (≈ 7.43 µM)	0.25 (≈ 0.464 µM)	1 (≈ 1.86 µM)	< 0.008
Nc1nc(O)cc(SC2=C(C(=O)O)N3C(=O)C(NC(=O)/C(=N\O)c4nc(N)sc4Cl)C3SC2)n1 (configuration not stated)	8 (≈ 14.7 µM)	0.063 (≈ 0.116 µM)	0.016 (≈ 0.0294 µM)	1 (≈ 1.83 µM)	0.063 (≈ 0.116 µM)	2 (≈ 3.67 µM)	0.5 (≈ 0.917 µM)	0.25 (≈ 0.459 µM)	
Nc1cc(SC2=C(C(=O)O)N3C(=O)C(NC(=O)/C(=N\O)c4csc(N)n4)C3SC2)nc(N)n1 (configuration not stated)	8 (≈ 15.7 µM)	0.031 (≈ 0.0608 µM)	0.13 (≈ 0.255 µM)	1 (≈ 1.96 µM)	0.031 (≈ 0.0608 µM)	2 (≈ 3.92 µM)	0.5 (≈ 0.981 µM)	0.25 (≈ 0.491 µM)	< 0.008
Nc1cc(N)nc(SCSC2=C(C(=O)O)N3C(=O)C(NC(=O)/C(=N\O)c4csc(N)n4)C3SC2)n1 (configuration not stated)	4 (≈ 7.2 µM)	0.063 (≈ 0.113 µM)	1 (≈ 1.8 µM)	0.5 (≈ 0.9 µM)	0.031 (≈ 0.0558 µM)	1 (≈ 1.8 µM)	1 (≈ 1.8 µM)	0.13 (≈ 0.234 µM)	1 (≈ 1.8 µM)
C=CC1=C(C(=O)O)N2C(=O)[C@@H](NC(=O)/C(=N\O)c3csc(N)n3)[C@H]2SC1 [CEFDINIR]	8 (≈ 20.2 µM)	0.031 (≈ 0.0784 µM)	0.5 (≈ 1.26 µM)	0.13 (≈ 0.329 µM)	0.031 (≈ 0.0784 µM)	4 (≈ 10.1 µM)	4 (≈ 10.1 µM)	0.063 (≈ 0.159 µM)	0.5 (≈ 1.26 µM)
